The target of the assay is interaction between p53 and MDM2 proteins (Homo sapiens, UniProt Q00987). Nature of the assay: HTRF assay of inhibition of p53-MDM2 interaction. The format is binding. As to conditions: GST-MDM2 and biotinylated p53 peptide, bsa: 0.02%. Here is the method:
The ability of the compounds to inhibit the interaction between p53 and MDM2 proteins was measured by an HTRF (homogeneous time-resolved fluorescence) assay in which recombinant GST-tagged MDM2 binds to a peptide that resembles the MDM2-interacting region of p53. Binding of GST-MDM2 protein and p53-peptide (biotinylated on its N-terminal end) is registered by the FRET (fluorescence resonance energy transfer) between Europium (Eu)-labeled anti-GST antibody and streptavidin-conjugated Allophycocyanin (APC).
Add 20 uL streptavidin-APC and Eu-anti-GST antibody mixture (6 nM Eu-anti-GST and 60 nM streptavidin-APC working solution) in TBS buffer with 0.2% BSA, shake at room temperature for 30 minutes and read using a TRF-capable plate reader at
If not specified, the reagents were purchased from Sigma Chemical Co.
Chain of interaction between p53 and MDM2 proteins (Q00987 whole entry): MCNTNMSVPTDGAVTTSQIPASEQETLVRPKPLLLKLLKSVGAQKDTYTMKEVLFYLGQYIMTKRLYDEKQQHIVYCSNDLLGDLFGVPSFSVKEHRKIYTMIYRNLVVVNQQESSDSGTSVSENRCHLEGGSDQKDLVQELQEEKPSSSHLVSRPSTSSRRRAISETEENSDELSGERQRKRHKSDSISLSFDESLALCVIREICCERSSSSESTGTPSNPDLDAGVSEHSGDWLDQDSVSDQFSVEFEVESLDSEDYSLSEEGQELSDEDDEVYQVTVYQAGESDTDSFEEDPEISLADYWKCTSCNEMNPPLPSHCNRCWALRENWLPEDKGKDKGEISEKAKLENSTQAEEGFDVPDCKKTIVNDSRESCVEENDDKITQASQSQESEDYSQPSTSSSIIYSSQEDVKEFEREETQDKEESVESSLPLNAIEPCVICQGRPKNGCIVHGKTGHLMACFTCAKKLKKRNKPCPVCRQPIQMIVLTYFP
Compound `COC(=O)c1ccc(NC(=O)[C@@H]2N[C@@H](CC(C)(C)C)[C@@]3(C(=O)Nc4cc(O)ncc43)[C@H]2c2cccc(Cl)c2F)c(OC)c1` (racemic) [Example 113, methyl rac-4-((2S,3R,4S,5R)-4-(3-chloro-2-fluorophenyl)-6′-hydroxy-2-neopentyl-2′-oxo-1′,2′-dihydrospiro[pyrrolidine-3,3′-pyrrolo[3,2-c]pyridine]-5-ylcarboxamido)-3-methoxybenzoate] returned a 50% inhibitory concentration (IC50) of over 10000 nM.

`COc1cc(C(=O)O)ccc1NC(=O)[C@@H]1N[C@@H](CC(C)(C)C)[C@@]2(C(=O)Nc3c(Cl)ccnc32)[C@H]1c1cccc(Cl)c1F` (racemic) [Example 124, rac-4-((2S,3S,4S,5R)-7′-chloro-4-(3-chloro-2-fluorophenyl)-2-neopentyl-2′-oxo-1′,2′-dihydrospiro[pyrrolidine-3,3′-pyrrolo[3,2-b]pyridine]-5-ylcarboxamido)-3-methoxybenzoic acid]: the IC50 is 1010 nM.

As for `COc1cc(OCCO)ccc1NC(=O)[C@@H]1N[C@@H](CC(C)(C)C)[C@@]2(C(=O)Nc3nc(Cl)ncc32)[C@H]1c1cccc(Cl)c1F` (racemic) [Example 89, rac-(2S,3R,4S,5R)-2′-chloro-4-(3-chloro-2-fluorophenyl)-N-[4-(2-hydroxyethoxy)-2-methoxyphenyl]-2-neopentyl-6′-oxo-6′,7′-dihydrospiro[pyrrolidine-3,5′-pyrrolo[2,3-d]pyrimidine]-5-carboxamide], 11.7 nM corresponded to half-maximal inhibition (IC50).

Take `COc1cc(C(N)=O)ccc1NC(=O)[C@@H]1N[C@@H](CC(C)(C)C)[C@@]2(C(=O)Nc3cc(Cl)cnc32)[C@H]1c1cccc(Cl)c1` (racemic) [Example 63, rac-(2S,3S,4R,5R)-N-(4-carbamoyl-2-methoxyphenyl)-6′-chloro-4-(3-chlorophenyl)-2-neopentyl-2′-oxo-1′,2′-dihydrospiro[pyrrolidine-3,3′-pyrrolo[3,2-b]pyridine]-5-carboxamide]: the midpoint of inhibition, the IC50, lay at 14.6 nM.

In the case of `COC(=O)c1ccc(NC(=O)[C@@H]2N[C@@H](CC(C)(C)C)[C@@]3(C(=O)Nc4ncccc43)[C@H]2c2cccc(Cl)c2F)c(OC)c1` (racemic) [Example 13, methyl rac-4-((2S,3R,4S,5R)-4-(3-chloro-2-fluorophenyl)-2-neopentyl-2′-oxo-1′,2′-dihydrospiro[pyrrolidine-3,3′-pyrrolo[2,3-b]pyridine]-5-ylcarboxamido)-3-methoxybenzoate], the IC50 stood at 30.3 nM.

Take `COC(=O)c1ccc(NC(=O)[C@@H]2N[C@@H](CC(C)(C)C)[C@@]3(C(=O)Nc4cc(OC)ncc43)[C@H]2c2cccc(Cl)c2F)c(OC)c1` (racemic) [Example 110, methyl rac-4-((2S,3R,4S,5R)-4-(3-chloro-2-fluorophenyl)-6′-methoxy-2-neopentyl-2′-oxo-1′,2′-dihydrospiro[pyrrolidine-3,3′-pyrrolo[3,2-c]pyridine]-5-ylcarboxamido)-3-methoxybenzoate]: the concentration for half-maximal inhibition (IC50) was 13.6 nM.

Compound `COc1cc(C(N)=O)ccc1NC(=O)[C@@H]1N[C@@H](CC(C)(C)C)[C@@]2(C(=O)Nc3cc(C)ncc32)[C@H]1c1cccc(Cl)c1F` (racemic) [Example 121, rac-(2S,3R,4S,5R)-N-(4-carbamoyl-2-methoxyphenyl)-4-(3-chloro-2-fluorophenyl)-6′-methyl-2-neopentyl-2′-oxo-1′,2′-dihydrospiro[pyrrolidine-3,3′-pyrrolo[3,2-c]pyridine]-5-carboxamide] came in with an IC50 of 11.8 nM.

Turning to `COc1cc2c(cn1)[C@@]1(C(=O)N2)[C@H](CC(C)(C)C)N[C@@H](C(=O)Nc2ccc(C(N)=O)cc2OC)[C@@H]1c1cccc(Cl)c1F` (racemic) [Example 115, rac-(2S,3R,4S,5R)-N-(4-carbamoyl-2-methoxyphenyl)-4-(3-chloro-2-fluorophenyl)-6′-methoxy-2-neopentyl-2′-oxo-1′,2′-dihydrospiro[pyrrolidine-3,3′-pyrrolo[3,2-c]pyridine]-5-carboxamide], half-maximal inhibition (IC50) required 127 nM.

In turn, `COc1cc(C(=O)O)ccc1NC(=O)[C@@H]1N[C@@H](CC(C)(C)C)[C@@]2(C(=O)Nc3cc(C)ncc32)[C@H]1c1cccc(Cl)c1F` (racemic) [Example 120, rac-4-((2S,3R,4S,5R)-4-(3-chloro-2-fluorophenyl)-6′-methyl-2-neopentyl-2′-oxo-1′,2′-dihydrospiro[pyrrolidine-3,3′-pyrrolo[3,2-c]pyridine]-5-ylcarboxamido)-3-methoxybenzoic acid] registered an IC50 of 12 nM.

`COC(=O)c1ccc(NC(=O)[C@@H]2N[C@@H](CC(C)(C)C)[C@]3(C(=O)Nc4nc(Cl)ncc43)[C@H]2c2cccc(Cl)c2F)c(OC)c1` (racemic) [Example 91, methyl rac-4-{(2S,3S,4S,5R)-2′-chloro-4-(3-chloro-2-fluorophenyl)-2-neopentyl-6′-oxo-6′,7′-dihydrospiro[pyrrolidine-3,5′-pyrrolo[2,3-d]pyrimidine]-5-ylcarboxamido}-3-methoxybenzoate] registered an IC50 of 10.7 nM.

As to `COC(=O)c1ccc(NC(=O)[C@@H]2N[C@@H](CC(C)(C)C)[C@@]3(C(=O)Nc4ccncc43)[C@H]2c2cccc(Cl)c2F)c(OC)c1` (racemic) [Example 6, methyl rac-4-((2S,3R,4S,5R)-4-(3-chloro-2-fluorophenyl)-2-neopentyl-2′-oxo-1′,2′-dihydrospiro[pyrrolidine-3,3′-pyrrolo[3,2-c]pyridine]-5-ylcarboxamido)-3-methoxybenzoate], 32.4 nM corresponded to half-maximal inhibition (IC50).

With `COc1cc(C(=O)O)ccc1NC(=O)[C@@H]1N[C@@H](CC(C)(C)C)[C@@]2(C(=O)Nc3cc(O)ncc32)[C@H]1c1cccc(Cl)c1F` (racemic) [Example 114, rac-4-((2S,3R,4S,5R)-4-(3-chloro-2-fluorophenyl)-6′-hydroxy-2-neopentyl-2′-oxo-1′,2′-dihydrospiro[pyrrolidine-3,3′-pyrrolo[3,2-c]pyridine]-5-ylcarboxamido)-3-methoxybenzoic acid], the IC50 was over 10000 nM.

Regarding `COc1cc(OCCO)ccc1NC(=O)[C@@H]1N[C@@H](CC(C)(C)C)[C@@]2(C(=O)Nc3cc(Cl)ncc32)[C@H]1c1cccc(Cl)c1F` (racemic) [Example 117, rac-(2S,3R,4S,5R)-6′-chloro-4-(3-chloro-2-fluorophenyl)-N-(4-(2-hydroxyethoxy)-2-methoxyphenyl)-2-neopentyl-2′-oxo-1′,2′-dihydrospiro[pyrrolidine-3,3′-pyrrolo[3,2-c]pyridine]-5-carboxamide], the IC50 amounted to 14 nM.

Turning to `COC(=O)c1ccc(NC(=O)[C@@H]2N[C@@H](CC(C)(C)C)[C@@]3(C(=O)Nc4cc(Cl)sc43)[C@H]2c2cccc(Cl)c2F)c(OC)c1` (racemic) [Example 96, methyl rac-4-((2S,3R,4R,5R)-2′-chloro-4-(3-chloro-2-fluorophenyl)-2-neopentyl-5′-oxo-4′,5′-dihydrospiro[pyrrolidine-3,6′-thieno[3,2-b]pyrrole]-5-ylcarboxamido)-3-methoxybenzoate], 22.7 nM corresponded to half-maximal inhibition (IC50).

`COc1cc(C(N)=O)ccc1NC(=O)[C@@H]1N[C@@H](CC(C)(C)C)[C@@]2(C(=O)Nc3cc(F)cnc32)[C@H]1c1cccc(Cl)c1F` (racemic) [Example 86, rac-(2S,3S,4S,5R)-N-(4-carbamoyl-2-methoxyphenyl)-4-(3-chloro-2-fluorophenyl)-6′-fluoro-2-neopentyl-2′-oxo-1′,2′-dihydrospiro[pyrrolidine-3,3′-pyrrolo[3,2b]pyridine]-5-carboxamide] yielded an IC50 of 18.7 nM.

For the origin of these results see patent publication US20120046306A1, “Substituted Heteroaryl Spiropyrrolidine MDM2 Antagonists” (priority 2010, published 2012).
